Experimental data taken from ChEMBL document CHEMBL1201862, “PubChem BioAssay data set” (2004).
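Assay format: 96-well plates, 48-hour exposure. GI50 = concentration required for 50% inhibition of growth.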 Calls of active or inactive are those of the source. Cut-off read from the data, not from the text of the source: active = GI50 up to about 1.1 µM and inactive = higher.

Assays:
Test in all cases: DTP human tumour cell line panel, 48 h
SF-268 = system: SF-268
SR = system: SR
TK-10 = system: TK-10
CCRF-CEM = system: CCRF-CEM
KM12 = system: KM12
SF-295 = system: SF-295
SNB-75 = system: SNB-75
RPMI-8226 = system: RPMI-8226
CAKI-1 = system: CAKI-1
SK-MEL-5 = system: SK-MEL-5
MCF7 = system: MCF7
Malme-3M = system: Malme-3M
NCI/ADR-RES = system: NCI/ADR-RES
HOP-62 = system: HOP-62
OVCAR-3 = system: OVCAR-3
MOLT-4 = system: MOLT-4
K562 = system: K562
RXF 393 = system: RXF 393
BT-549 = system: BT-549
UO-31 = system: UO-31
HCT-116 = system: HCT-116
Hs-578T = system: Hs-578T
SF-539 = system: SF-539
SN12C = system: SN12C
UACC-257 = system: UACC-257
NCI-H226 = system: NCI-H226
NCI-H460 = system: NCI-H460
COLO 205 = system: COLO 205
U-251 = system: U-251
A549 = system: A549
SNB-19 = system: SNB-19
EKVX = system: EKVX
T47D = system: T47D
SW-620 = system: SW-620
NCI-H23 = system: NCI-H23
SK-MEL-28 = system: SK-MEL-28
PC-3 = system: PC-3
HCT-15 = system: HCT-15
NCI-H522 = system: NCI-H522
DU-145 = system: DU-145
IGROV-1 = system: IGROV-1
HL-60 = system: HL-60
HCC 2998 = system: HCC 2998
MDA-N = system: MDA-N
HT-29 = system: HT-29
ACHN = system: ACHN
OVCAR-8 = system: OVCAR-8
MDA-MB-435 = system: MDA-MB-435
LOX IMVI = system: LOX IMVI
MDA-MB-231 = system: MDA-MB-231
786-0 = system: 786-0
SK-OV-3 = system: SK-OV-3
HOP-92 = system: HOP-92
SK-MEL-2 = system: SK-MEL-2
M14 = system: M14
OVCAR-5 = system: OVCAR-5
A498 = system: A498
UACC-62 = system: UACC-62
OVCAR-4 = system: OVCAR-4

Structure (SMILES): CC(C)(C)c1cc(S(=O)(=O)O)c2oc(-c3ccccc3)cc(=O)c2c1
- GI50 (SF-268): > 100 µM (inactive)
- GI50 (SR): > 100 µM (inactive)
- GI50 (TK-10): > 100 µM (inactive)
- GI50 (CCRF-CEM): > 100 µM (inactive)
- GI50 (KM12): > 100 µM (inactive)
- GI50 (SF-295): > 100 µM (inactive)
- GI50 (SNB-75): > 100 µM (inactive)
- GI50 (RPMI-8226): > 100 µM (inactive)
- GI50 (CAKI-1): > 100 µM (inactive)
- GI50 (SK-MEL-5): > 100 µM (inactive)
- GI50 (MCF7): > 100 µM (inactive)
- GI50 (Malme-3M): > 100 µM (inactive)
- GI50 (NCI/ADR-RES): > 100 µM (inactive)
- GI50 (HOP-62): > 100 µM (inactive)
- GI50 (OVCAR-3): > 100 µM (inactive)
- GI50 (MOLT-4): > 100 µM (inactive)
- GI50 (K562): > 100 µM (inactive)
- GI50 (RXF 393): > 100 µM (inactive)
- GI50 (BT-549): > 100 µM (inactive)
- GI50 (UO-31): > 100 µM (inactive)
- GI50 (HCT-116): > 100 µM (inactive)
- GI50 (Hs-578T): > 100 µM (inactive)
- GI50 (SF-539): > 100 µM (inactive)
- GI50 (SN12C): > 100 µM (inactive)
- GI50 (UACC-257): > 100 µM (inactive)
- GI50 (NCI-H226): > 100 µM (inactive)
- GI50 (NCI-H460): > 100 µM (inactive)
- GI50 (COLO 205): > 100 µM (inactive)
- GI50 (U-251): > 100 µM (inactive)
- GI50 (A549): > 100 µM (inactive)
- GI50 (SNB-19): > 100 µM (inactive)
- GI50 (EKVX): > 100 µM (inactive)
- GI50 (T47D): 84.9 µM (inactive)
- GI50 (SW-620): > 100 µM (inactive)
- GI50 (NCI-H23): > 100 µM (inactive)
- GI50 (SK-MEL-28): > 100 µM (inactive)
- GI50 (PC-3): > 100 µM (inactive)
- GI50 (HCT-15): > 100 µM
- GI50 (NCI-H522): > 100 µM (inactive)
- GI50 (DU-145): > 100 µM (inactive)
- GI50 (IGROV-1): > 100 µM (inactive)
- GI50 (HL-60): > 100 µM (inactive)
- GI50 (HCC 2998): > 100 µM (inactive)
- GI50 (MDA-N): > 100 µM (inactive)
- GI50 (HT-29): > 100 µM (inactive)
- GI50 (ACHN): > 100 µM (inactive)
- GI50 (OVCAR-8): > 100 µM (inactive)
- GI50 (MDA-MB-435): > 100 µM (inactive)
- GI50 (LOX IMVI): > 100 µM (inactive)
- GI50 (MDA-MB-231): > 100 µM (inactive)
- GI50 (786-0): > 100 µM (inactive)

Structure (SMILES): COc1cc(C(=O)C2C(=O)c3ccccc3C2C2(O)c3ccccc3CC2C(O)c2cc(OC)c(OC)c(OC)c2)cc(OC)c1OC (centres undefined)
- GI50 (SF-268): 91.4 µM (inactive)
- GI50 (SR): > 100 µM (inactive)
- GI50 (TK-10): > 100 µM (inactive)
- GI50 (KM12): > 100 µM (inactive)
- GI50 (SF-295): 74.6 µM (inactive)
- GI50 (SNB-75): 20.3 µM (inactive)
- GI50 (RPMI-8226): 15.2 µM (inactive)
- GI50 (CAKI-1): > 100 µM (inactive)
- GI50 (SK-MEL-5): > 100 µM (inactive)
- GI50 (MCF7): > 100 µM (inactive)
- GI50 (Malme-3M): > 100 µM (inactive)
- GI50 (NCI/ADR-RES): > 100 µM (inactive)
- GI50 (HOP-62): 17.6 µM (inactive)
- GI50 (OVCAR-3): > 100 µM (inactive)
- GI50 (MOLT-4): > 100 µM (inactive)
- GI50 (SK-OV-3): 32.1 µM (inactive)
- GI50 (K562): > 100 µM (inactive)
- GI50 (RXF 393): > 100 µM (inactive)
- GI50 (BT-549): > 100 µM (inactive)
- GI50 (HOP-92): 51.2 µM (inactive)
- GI50 (UO-31): > 100 µM (inactive)
- GI50 (HCT-116): > 100 µM (inactive)
- GI50 (Hs-578T): > 100 µM (inactive)
- GI50 (SF-539): 37.2 µM (inactive)
- GI50 (SN12C): > 100 µM (inactive)
- GI50 (SK-MEL-2): > 100 µM (inactive)
- GI50 (UACC-257): > 100 µM (inactive)
- GI50 (NCI-H226): > 100 µM (inactive)
- GI50 (M14): > 100 µM (inactive)
- GI50 (NCI-H460): > 100 µM (inactive)
- GI50 (COLO 205): > 100 µM (inactive)
- GI50 (OVCAR-5): > 100 µM (inactive)
- GI50 (U-251): 41.3 µM (inactive)
- GI50 (A549): > 100 µM (inactive)
- GI50 (SNB-19): > 100 µM (inactive)
- GI50 (EKVX): > 100 µM (inactive)
- GI50 (T47D): > 100 µM (inactive)
- GI50 (SW-620): > 100 µM (inactive)
- GI50 (NCI-H23): > 100 µM (inactive)
- GI50 (SK-MEL-28): > 100 µM (inactive)
- GI50 (PC-3): > 100 µM (inactive)
- GI50 (HCT-15): > 100 µM
- GI50 (A498): > 100 µM (inactive)
- GI50 (DU-145): > 100 µM (inactive)
- GI50 (IGROV-1): > 100 µM (inactive)
- GI50 (HCC 2998): > 100 µM (inactive)
- GI50 (MDA-N): > 100 µM (inactive)
- GI50 (UACC-62): > 100 µM (inactive)
- GI50 (HT-29): > 100 µM (inactive)
- GI50 (ACHN): > 100 µM (inactive)
- GI50 (OVCAR-8): 62.4 µM (inactive)
- GI50 (OVCAR-4): > 100 µM (inactive)
- GI50 (MDA-MB-435): > 100 µM (inactive)
- GI50 (LOX IMVI): > 100 µM (inactive)
- GI50 (MDA-MB-231): 94.2 µM (inactive)
- GI50 (786-0): > 100 µM (inactive)

Structure (SMILES): COc1cc2cc(C(=O)N3CC(CCl)c4c3cc(NC(=O)OCc3ccc([N+](=O)[O-])cc3)c3ccccc43)[nH]c2c(OC)c1OC (centres undefined)
- GI50 (SF-268): 24.6 µM (inactive)
- GI50 (SR): 0.0432 µM (active)
- GI50 (TK-10): 0.327 µM (active)
- GI50 (CCRF-CEM): 8.91 µM (inactive)
- GI50 (KM12): > 42.5 µM (inactive)
- GI50 (SF-295): 17.2 µM (inactive)
- GI50 (SNB-75): 20.5 µM (inactive)
- GI50 (RPMI-8226): 13.3 µM (inactive)
- GI50 (CAKI-1): 0.153 µM (active)
- GI50 (SK-MEL-5): 46.7 µM (inactive)
- GI50 (MCF7): 36.1 µM (inactive)
- GI50 (Malme-3M): > 100 µM (inactive)
- GI50 (NCI/ADR-RES): 3.67 µM (inactive)
- GI50 (HOP-62): 16.3 µM (inactive)
- GI50 (OVCAR-3): > 100 µM (inactive)
- GI50 (MOLT-4): 9.73 µM (inactive)
- GI50 (SK-OV-3): < 0.01 µM (active)
- GI50 (RXF 393): 14 µM (inactive)
- GI50 (BT-549): 97.3 µM (inactive)
- GI50 (HOP-92): > 45.7 µM (inactive)
- GI50 (UO-31): 0.125 µM (active)
- GI50 (HCT-116): 14.7 µM (inactive)
- GI50 (Hs-578T): > 53.1 µM (inactive)
- GI50 (SF-539): > 48.6 µM (inactive)
- GI50 (SN12C): > 100 µM (inactive)
- GI50 (SK-MEL-2): > 69.2 µM (inactive)
- GI50 (UACC-257): > 71.3 µM (inactive)
- GI50 (NCI-H226): > 100 µM (inactive)
- GI50 (M14): 29 µM (inactive)
- GI50 (NCI-H460): < 0.0173 µM (active)
- GI50 (COLO 205): > 100 µM (inactive)
- GI50 (OVCAR-5): 29.4 µM (inactive)
- GI50 (U-251): 38.5 µM (inactive)
- GI50 (A549): 8.65 µM (inactive)
- GI50 (SNB-19): > 100 µM (inactive)
- GI50 (EKVX): 43 µM (inactive)
- GI50 (T47D): 24.3 µM (inactive)
- GI50 (SW-620): 28.2 µM (inactive)
- GI50 (NCI-H23): 0.158 µM (active)
- GI50 (SK-MEL-28): > 100 µM (inactive)
- GI50 (PC-3): > 60 µM (inactive)
- GI50 (HCT-15): > 50.2 µM
- GI50 (A498): < 0.01 µM (active)
- GI50 (DU-145): 0.108 µM (active)
- GI50 (IGROV-1): > 43.9 µM (inactive)
- GI50 (HL-60): 0.11 µM (active)
- GI50 (HCC 2998): 0.0226 µM (active)
- GI50 (MDA-N): > 100 µM (inactive)
- GI50 (UACC-62): > 38 µM (inactive)
- GI50 (HT-29): > 54.2 µM (inactive)
- GI50 (ACHN): < 0.0116 µM (active)
- GI50 (OVCAR-8): 1.1 µM (active)
- GI50 (OVCAR-4): > 100 µM (inactive)
- GI50 (MDA-MB-435): > 100 µM (inactive)
- GI50 (LOX IMVI): 38.7 µM (inactive)
- GI50 (MDA-MB-231): 44.9 µM (inactive)
- GI50 (786-0): 0.785 µM (active)
